{"source": "paper PMC12040169", "about": "(PLOS Biology, 2025)"}
{"assay": "in vitro", "conditions": "human, hela cells, % viability", "units": {"viability at 28.5 h, 10 µM": "%"}}
{"smiles": "CSCCC(=O)N1CCN(c2ncccn2)CC1", "note": "[CBK144509]", "viability at 28.5 h, 10 µM": 90.3}
{"smiles": "CN1CCC(C(=O)N2CCN(c3ncccn3)CC2)CC1", "note": "[CBK144511]", "viability at 28.5 h, 10 µM": 102}
{"smiles": "O=C(c1cncnc1)N1CCN(c2ncccn2)CC1", "note": "[CBK144515]", "viability at 28.5 h, 10 µM": 88}
{"smiles": "O=C(c1cccnc1)N1CCN(c2ncccn2)CC1", "note": "[CBK144516]", "viability at 28.5 h, 10 µM": 95.4}
{"smiles": "O=C(c1c(F)cccc1F)N1CCN(c2ncccn2)CC1", "note": "[CBK144517]", "viability at 28.5 h, 10 µM": 89.3}
{"smiles": "O=C(c1ccc2c(c1)OCCO2)N1CCN(c2ncccn2)CC1", "note": "[CBK144519]", "viability at 28.5 h, 10 µM": 89.5}
{"smiles": "O=C(COc1cccnc1)N1CCN(c2ncccn2)CC1", "note": "[CBK144521]", "viability at 28.5 h, 10 µM": 86.5}
{"smiles": "O=C(Cc1c[nH]cn1)N1CCN(c2ncccn2)CC1", "note": "[CBK144527]", "viability at 28.5 h, 10 µM": 105}
{"smiles": "CN1CCC[C@H]1C(=O)N1CCN(c2ncccn2)CC1", "note": "[CBK144528]", "viability at 28.5 h, 10 µM": 93.4}
{"smiles": "O=C(CC1CCCCC1)N1CCN(c2ncccn2)CC1", "note": "[CBK144529]", "viability at 28.5 h, 10 µM": 102}
{"smiles": "CC(C)(N)CC(=O)N1CCN(c2ncccn2)CC1", "note": "[CBK144532]", "viability at 28.5 h, 10 µM": 91.3}
{"smiles": "Cc1ccc(CNC(=O)Cn2nnc(-c3ccc(CN4CC(C)OC(C)C4)cc3)n2)cc1", "note": "(stereo not drawn) [CBK144554C]", "viability at 28.5 h, 10 µM": 64.2}
{"smiles": "CSc1ccccc1CNC(=O)Cn1nnc(-c2ccc(CN3CCC(C)CC3)cc2)n1", "note": "[CBK144573C]", "viability at 28.5 h, 10 µM": 93.2}
{"smiles": "CC1CCN(Cc2ccc(-c3nnn(CC(=O)NCc4ccc(NS(C)(=O)=O)cc4)n3)cc2)CC1", "note": "[CBK144588C]", "viability at 28.5 h, 10 µM": 90.3}
{"smiles": "CCNC(=O)N1CC2(CCN(C/C=C/c3ccccc3)CC2)c2ccccc21", "note": "[CBK144596T]", "viability at 28.5 h, 10 µM": 97.6}
{"smiles": "CCNC(=O)N1CC2(CCN(CCOc3ccc(OC)cc3)CC2)c2ccccc21", "note": "[CBK144600T]", "viability at 28.5 h, 10 µM": 98.4}
{"smiles": "CC(C)C(=O)N1CC2(CCN(Cc3cc(=O)[nH]c(=O)[nH]3)CC2)c2ccccc21", "note": "[CBK144602T]", "viability at 28.5 h, 10 µM": 107}
{"smiles": "Cc1cc(NCCc2ccc(=O)[nH]c2)nc(-c2cc(F)c(F)cc2F)n1", "note": "[CBK144636C]", "viability at 28.5 h, 10 µM": 99.3}
{"smiles": "O=C(OCc1ccccc1)N1CCC(C2OCc3cc(-c4cccc5ncccc45)ccc3O2)CC1", "note": "(stereo not drawn) [CBK144644]", "viability at 28.5 h, 10 µM": 94.8}
{"smiles": "O=C(Nc1ccc2[nH]ccc2c1)c1c(F)cccc1F", "note": "[CBK144711]", "viability at 28.5 h, 10 µM": 95.9}
{"smiles": "CS(=O)(=O)N1CCC(Oc2nccnc2OCc2ccc(Cl)c(Cl)c2)CC1", "note": "[CBK144910]", "viability at 28.5 h, 10 µM": 90.5}
{"smiles": "CSc1nnc(NS(=O)(=O)c2ccccc2C)s1", "note": "[CBK144918]", "viability at 28.5 h, 10 µM": 97.4}
{"smiles": "COCCSc1nnc(NS(=O)(=O)c2ccc(F)cc2)s1", "note": "[CBK144919]", "viability at 28.5 h, 10 µM": 87.1}
{"smiles": "CC(C)(C)OC(=O)N1CCN(Cc2ccn(Cc3ccc(S(C)(=O)=O)cc3)c2)CC1", "note": "[CBK144936]", "viability at 28.5 h, 10 µM": 119}
{"smiles": "CCCC1CCN(Cc2ccn(Cc3ccc(S(C)(=O)=O)cc3)c2)CC1", "note": "[CBK144937]", "viability at 28.5 h, 10 µM": 94.4}
{"smiles": "O=C(Nc1cccnc1)N1CCN(c2ccccc2)CC1", "note": "[CBK145043]", "viability at 28.5 h, 10 µM": 89.5}
{"smiles": "CN(C)CCN(Cc1ccccc1)C(=O)Nc1cccnc1", "note": "[CBK145047]", "viability at 28.5 h, 10 µM": 95}
{"smiles": "CCN(Cc1ccncc1)C(=O)Nc1cccnc1", "note": "[CBK145053]", "viability at 28.5 h, 10 µM": 111}
{"smiles": "CCN(Cc1ccncc1)C(=O)NCc1cccnc1", "note": "[CBK145054]", "viability at 28.5 h, 10 µM": 94.6}
{"smiles": "CCN(Cc1ccncc1)C(=O)NCc1ccc2c(c1)OCO2", "note": "[CBK145056]", "viability at 28.5 h, 10 µM": 102}
{"smiles": "COc1ccc(CCOc2cnc(-c3ccccc3)c(N)n2)cc1", "note": "[CBK145065]", "viability at 28.5 h, 10 µM": 98.8}
{"smiles": "COc1cccc(COc2cnc(-c3ccccc3)c(N)n2)c1OC", "note": "[CBK145066]", "viability at 28.5 h, 10 µM": 101}
{"smiles": "COc1ccccc1-c1ncc(OCc2ccccn2)nc1N", "note": "[CBK145070]", "viability at 28.5 h, 10 µM": 109}
{"smiles": "COc1ccccc1-c1ncc(OC2CCN(C)C2)nc1N", "note": "(stereo not drawn) [CBK145081]", "viability at 28.5 h, 10 µM": 92.4}
{"smiles": "COc1ccc(-c2ncc(Oc3cccc(NC(C)=O)c3)nc2N)c(OC)c1", "note": "[CBK145087]", "viability at 28.5 h, 10 µM": 113}
{"smiles": "COCOc1ccc(-c2ncc(OCc3ccc4c(c3)OCO4)nc2N)cc1", "note": "[CBK145101]", "viability at 28.5 h, 10 µM": 100}
{"smiles": "COCc1cccc(-c2ncc(OCc3ccccn3)nc2N)c1", "note": "[CBK145108]", "viability at 28.5 h, 10 µM": 93.9}
{"smiles": "Nc1nc(OCCc2cccs2)cnc1-c1ccc(OC(F)(F)F)cc1", "note": "[CBK145116]", "viability at 28.5 h, 10 µM": 92.7}
{"smiles": "Nc1nc(OCc2ccncc2)cnc1-c1ccc(OC(F)(F)F)cc1", "note": "[CBK145121]", "viability at 28.5 h, 10 µM": 99.8}
{"smiles": "Cc1ccc(-c2ncc(OCCN3CCCC3=O)nc2N)c(C)c1", "note": "[CBK145127]", "viability at 28.5 h, 10 µM": 99.3}
{"smiles": "Cc1ccc(-c2ncc(OC3CCN(C)CC3)nc2N)c(C)c1", "note": "[CBK145139]", "viability at 28.5 h, 10 µM": 97.5}
{"smiles": "Nc1nc(OCc2cccs2)cnc1-c1ccsc1", "note": "[CBK145161]", "viability at 28.5 h, 10 µM": 95.8}
{"smiles": "Nc1nc(OCCOc2ccccc2)cnc1-c1ccsc1", "note": "[CBK145163]", "viability at 28.5 h, 10 µM": 109}
{"smiles": "Cn1cc(-c2ncc(OCCc3cccs3)nc2N)cn1", "note": "[CBK145167]", "viability at 28.5 h, 10 µM": 87.8}
{"smiles": "Cn1cc(-c2ncc(OCCOc3ccccc3)nc2N)cn1", "note": "[CBK145171]", "viability at 28.5 h, 10 µM": 108}
{"smiles": "Nc1nc(OCc2ccccc2)cnc1-c1cccc(C(F)(F)F)c1", "note": "[CBK145179]", "viability at 28.5 h, 10 µM": 99.4}
{"smiles": "COc1cccc(Oc2cnc(-c3ccc(C(=O)N(C)C)cc3)c(N)n2)c1", "note": "[CBK145185]", "viability at 28.5 h, 10 µM": 95.5}
{"smiles": "CN(C)C(=O)c1ccc(-c2ncc(OCc3cccs3)nc2N)cc1", "note": "[CBK145187]", "viability at 28.5 h, 10 µM": 102}
{"smiles": "Nc1nc(OCCN2CCOCC2)cnc1-c1cc(Cl)cc(Cl)c1", "note": "[CBK145198]", "viability at 28.5 h, 10 µM": 99.8}
{"smiles": "CCC(CC)C(=O)Nc1nc(OCCN2CCCC2=O)cnc1-c1ccc(Cl)cc1Cl", "note": "[CBK145210]", "viability at 28.5 h, 10 µM": 92.6}
{"smiles": "COCOc1ccc(-c2ncc(OC)nc2NC(=O)COC)cc1", "note": "[CBK145216]", "viability at 28.5 h, 10 µM": 92.7}
{"smiles": "COc1cnc(-c2cnn(C)c2)c(NC(=O)c2cc(C)oc2C)n1", "note": "[CBK145218]", "viability at 28.5 h, 10 µM": 93.2}
{"smiles": "COc1cnc(/C=C\\c2ccccc2)c(NC(=O)c2cc(C)oc2C)n1", "note": "[CBK145222]", "viability at 28.5 h, 10 µM": 95.1}
{"smiles": "COCOc1ccc(-c2ncc(OCCN3CCCC3=O)nc2NC(C)=O)cc1", "note": "[CBK145253]", "viability at 28.5 h, 10 µM": 104}
{"smiles": "COc1cnc(-c2ccccc2OC)c(NC(=O)Cc2ccccc2)n1", "note": "[CBK145260]", "viability at 28.5 h, 10 µM": 95.8}
{"smiles": "COc1ccccc1-c1ncc(OCC(F)(F)F)nc1NC(=O)C1CC1", "note": "[CBK145275]", "viability at 28.5 h, 10 µM": 86.4}
{"smiles": "COc1cnc(-c2ccsc2)c(NC(=O)c2cc(C)oc2C)n1", "note": "[CBK145294]", "viability at 28.5 h, 10 µM": 93.2}
{"smiles": "CC(C)CC(=O)Nc1nc(OCC(F)(F)F)cnc1-c1ccc(Cl)cc1Cl", "note": "[CBK145356]", "viability at 28.5 h, 10 µM": 94.2}
{"smiles": "O=C(Nc1nc(OCC(F)(F)F)cnc1-c1ccc(Cl)cc1Cl)c1cc2ccccc2s1", "note": "[CBK145358]", "viability at 28.5 h, 10 µM": 87.4}
{"smiles": "COc1ccc(CC(=O)Nc2nc(OCC(F)(F)F)cnc2-c2ccc(Cl)cc2Cl)cc1", "note": "[CBK145359]", "viability at 28.5 h, 10 µM": 91}
{"smiles": "CC(=O)Nc1nc(OCCN2CCCC2=O)cnc1/C=C\\c1ccccc1", "note": "[CBK145371]", "viability at 28.5 h, 10 µM": 84.9}
{"smiles": "COc1cnc(-c2cccc(C(=O)N(C)C)c2)c(NC(=O)c2ccccc2)n1", "note": "[CBK145385]", "viability at 28.5 h, 10 µM": 102}
{"smiles": "COc1cnc(-c2ccc(Cl)cc2Cl)c(NC(=O)Cc2ccccc2)n1", "note": "[CBK145398]", "viability at 28.5 h, 10 µM": 92.8}
{"smiles": "CC(=O)Nc1nc(OCCOc2ccccc2)cnc1-c1cnn(C)c1", "note": "[CBK145425]", "viability at 28.5 h, 10 µM": 92.6}
{"smiles": "COc1ccc(CC(=O)Nc2nc(OC)cnc2-c2ccoc2)cc1", "note": "[CBK145435]", "viability at 28.5 h, 10 µM": 92.8}
{"smiles": "CCCCN(C)c1c(CC)nc2ccc(C(=O)NCCc3ccccn3)cn12", "note": "[CBK145441]", "viability at 28.5 h, 10 µM": 98.4}
